The source of these data is US20260049072A1, “HETEROCYCLIC COMPOUND FOR INDUCING DEGRADATION OF MUTANT KRAS PROTEIN” (Astellas Pharma Inc., priority 2022, published 2026).

Where two headings read alike, the source gives them in different places.

One assay concerns AsPC-1 cells. The experiment in a line: Non-anchorage-dependent cell growth inhibition (spheroid 3D culture), AsPC-1. The format is cell-based. As to conditions: Homo sapiens, ASPC1, 144 h, read-out: AsPC-1 IC50. How it is done:
(§1) Test Example 3: Evaluation of Non-Anchorage-Dependent Cell Growth Inhibitory Activity on Human KRAS G12V Mutant-Positive Pancreatic Cancer Line PA-TU-8902, Human KRAS G12D Mutant-Positive Pancreatic Cancer Line AsPC-1 or Human KRAS G12C Mutant-Positive Pancreatic Cancer Line MIA PaCa-2
(§2) The non-anchorage-dependent cell growth inhibitory activities of subject compounds were evaluated by spheroid 3D cell culture.
(§3) PA-TU-8902 cells, AsPC-1 cells or MIA PaCa-2 cells (RIKEN BRC, RCB2094) were seeded at 36 µL/well on a low-cell-adhesive round bottom 384-well plate (Prime Surface: from Sumitomo Bakelite) to give 5×10^2 cells per well. The PA-TU-8902 cells were under the same conditions as in Test Example 1-1, and the AsPC-1 cells were under the same conditions as in Test Example 1-2. For the MIA PaCa-2 cells, RPMI-1640 medium containing 10% fetal bovine serum was used in the presence of 5% CO2 at 37° C.
(§4) The next day, the subject compounds (6-9 points having final concentrations in the range of 3 μM to 0.3 nM) and DMSO, which was the solvent for the subject compounds, as a negative control were diluted 100-fold with a fresh medium and were each added at 4 μL per well. After culturing in the presence of 5% CO2 at 37° C. for six days, CellTiter-Glo 2.0 (from Promega) was added at 20 μL per well. After stirring with a plate mixer (from FINEPCR) at normal temperature for an hour, the luminescent signals were measured with ARVO X3 (from PerkinElmer).
(§5) With the signaling value in treatment with DMSO taken as 0% inhibition and with the signaling value in the medium alone without cells taken as 100% inhibition, the 50% inhibition values (IC50) were calculated by Sigmoid-Emax model nonlinear regression analysis.

For the next assay, the system named is PA-TU-8902 cells. The experiment in a line: Non-anchorage-dependent cell growth inhibition (spheroid 3D culture), PA-TU-8902. The format is cell-based, human. To be noted: Homo sapiens, PaTu 8902, 144 h, read-out: PA-TU-8902 IC50. How it is done:
as §1, §2, §3, §4, §5

In assay [1] the test system is phosphorylation of ERK (Thr202/Tyr204). The experiment in a line: ERK phosphorylation inhibitory activity, cell ELISA, PA-TU-8902. The class given is cell-based. To be noted: Homo sapiens, read-out: IC50 (ERK phosphorylation inhibition). How it is done:
Test Example 2: Evaluation of ERK Phosphorylation Inhibitory Activity on Human KRAS G12V Mutant-Positive Pancreatic Cancer Line PA-TU-8902
The ERK phosphorylation inhibitory activities of subject compounds were evaluated by measuring phosphorylation of the 202th threonine (Thr202) and the 204th tyrosine (Tyr204) of ERK located downstream of the KRAS signal by cell ELISA.
PA-TU-8902 cells were seeded at 36 µL/well on a 384-well plate (from Greiner bio-one) to give 5.0×10^3 cells per well. The cell culture conditions were the same conditions as in Test Example 1-1.
The next day, the subject compounds (9 points having final concentrations in the range of 3 μM to 0.3 nM), trametinib (MEK inhibitor) of a final concentration of 300 nM as a positive control and DMSO, which was the solvent for the subject compounds, as a negative control were diluted 100-fold with a fresh medium and were each added at 4 μL per well, followed by culturing for 24 hours. After culturing, a 30% glyoxal solution (40% glyoxal [from Nacalai Tesque] was diluted with PBS) was quickly added at 30 μL per well, and the plate was allowed to stand for an hour and 30 minutes at room temperature to thus immobilize the cells. Then, the plate was centrifuged (110×g, seven seconds, hereinafter centrifugation was performed under the same conditions unless otherwise specified) to remove the supernatant, and 0.1% Triton X-100-containing PBS was added at 20 μL per well. After allowing the plate to stand for 10 minutes at room temperature, the supernatant was removed by centrifugation, and the same operation was further repeated. Next, 0.5% SDS-containing PBS was added at 20 μL per well. The plate was allowed to stand at room temperature for 30 minutes and was then centrifuged to remove the supernatant. Subsequently, a blocking solution (Intercept Blocking Buffer) was added at 20 μL per well, and the plate was allowed to stand for an hour at room temperature. The supernatant was removed by centrifugation, and an ERK (Thr202/Tyr204) phosphorylation antibody (Phospho-p44/42 MAPK (Erk 1/2) (Thr202/Tyr204) (D13.14.4E) XP Rabbit mAb; from Cell Signaling Technology) diluted 2,500-fold with the blocking solution was added at 15 μL per well as a primary antibody. The plate was allowed to stand at 4° C. overnight.
The next day, the plate was centrifuged to remove the supernatant, and 0.05% Tween-20-containing PBS (from Thermo Scientific; 20×PBS Tween-20 was diluted 20-fold with ion exchange water and used) was added at 50 μL per well. The supernatant was removed by centrifugation to thus wash each well. The washing was performed three times in total. After washing, an anti-rabbit IgG antibody diluted 1,000-fold with the blocking solution was added at 15 μL per well as a secondary antibody, and the plate was allowed to stand for an hour at room temperature. The plate was centrifuged to remove the supernatant, and each well was washed three times with 0.05% Tween-20-containing PBS in the same manner as after the primary antibody reaction. Centrifugation after the third washing was performed at 171×g for 17 seconds. After removing the supernatant, the plate was dried as it was with air at room temperature for three hours or more, and the 800-nm fluorescent signals were measured with Aerius.
With the signaling value at the time of addition of DMSO taken as 0% inhibition and with the signaling value at the time of addition of 300 nM trametinib taken as 100% inhibition, the 50% inhibition values (IC50) were calculated by Sigmoid-Emax model nonlinear regression analysis.
(In general: An ELISA detects its analyte on a solid surface through an enzyme-linked reagent.)

Another assay deals with MIA PaCa-2 cells. Put plainly: Non-anchorage-dependent cell growth inhibition (spheroid 3D culture), MIA PaCa-2. The class given is cell-based. To be noted: Homo sapiens, MIA PaCa-2, 144 h, read-out: MIA PaCa-2 IC50. As for the experimental part:
as §1, §2, §3, §4, §5

Where [2] appears, read: KRAS G12D mutant-positive, 3D spheroid, six days, CellTiter-Glo 2.0.
[3] abbreviates: KRAS G12V mutant-positive, 3D spheroid, six days, CellTiter-Glo 2.0.
[4] abbreviates: PaTu 8902, PA-TU-8902 cells, 24 hours, 100% = 300 nM trametinib.
The mark [5] stands for this setting: KRAS G12C mutant-positive, 3D spheroid, six days, CellTiter-Glo 2.0.

Turning to `CO[C@@H](C)COc1nc(NC2CN(C(=S)N3CC(CN(C)C)C3)C2)c2cc(C3CC3)c(-c3c(C)c(F)cc4[nH]ncc34)c(OCc3ccc(-c4cn([C@H](C(=O)N5C[C@H](O)C[C@H]5C(=O)N[C@@H](CO)c5ccc(-n6cncn6)cc5)C(C)C)nn4)cc3)c2n1` (atropisomer, axis not shown) [Example 26], the IC50 in the assay on AsPC-1 cells (setting [2]) worked out at 15 nM; with PA-TU-8902 cells (setting [3]), 41 nM; in assay [1] (setting [4]) it was 15 nM; in the assay with MIA PaCa-2 cells (setting [5]), 7 nM.
As to `CO[C@@H](C)COc1cc(OC2CN(C(=O)O[C@H]3C[C@@H](N(C)C)C3)C2)c2cc(C3CC3)c(-c3c(C)c(F)cc4[nH]ncc34)c(OCc3ccc(-c4cn([C@H](C(=O)N5C[C@H](O)C[C@H]5C(=O)N[C@@H](CO)c5ccc(-n6cncn6)cc5)C(C)C)nn4)cc3)c2n1` (atropisomer, axis not shown; (M)) [Example 13, (1s,3R)-3-(dimethylamino)cyclobutyl 3-({(7M)-6-cyclopropyl-7-(6-fluoro-5-methyl-1H-indazol-4-yl)-8-{[4-(1-{(2S)-1-[(2S,4R)-4-hydroxy-2-({(1R)-2-hydroxy-1-[4-(1H-1,2,4-triazol-1-yl)phenyl]ethyl}carbamoyl)pyrrolidin-1-yl]-3-methyl-1-oxobutan-2-yl}-1H-1,2,3-triazol-4-yl)phenyl]methoxy}-2-[(2S)-2-methoxypropoxy]quinolin-4-yl}oxy)azetidine-1-carboxylate], the IC50 in the assay with AsPC-1 cells (setting [2]) stood at 18 nM; in the assay on PA-TU-8902 cells (setting [3]), 36 nM; in assay [1] (setting [4]), 9 nM; in the assay with MIA PaCa-2 cells (setting [5]) it was 13 nM.
For `CO[C@@H](C)COc1cc(OC2CN(C(=O)N3CC(CN(C)C)C3)C2)c2cc(C3CC3)c(-c3c(C)c(F)cc4[nH]ncc34)c(OCc3ccc(-c4cn([C@H](C(=O)N5C[C@H](O)C[C@H]5C(=O)N[C@@H](CO)c5ccc(-c6scnc6C)cc5)C(C)C)nn4)cc3)c2n1` (atropisomer, axis not shown; (M)) [Example 14, (4R)-1-[(2S)-2-(4-{4-[({(7M)-6-cyclopropyl-4-[(1-{3-[(dimethylamino)methyl]azetidine-1-carbonyl}azetidin-3-yl)oxy]-7-(6-fluoro-5-methyl-1H-indazol-4-yl)-2-[(2S)-2-methoxypropoxy]quinolin-8-yl}oxy)methyl]phenyl}-1H-1,2,3-triazol-1-yl)-3-methylbutanoyl]-4-hydroxy-N-{(1R)-2-hydroxy-1-[4-(4-methyl-1,3-thiazol-5-yl)phenyl]ethyl}-L-prolinamide] the same measures were 19 nM, 47 nM, 10 nM and 10 nM.
For `CO[C@@H](C)COc1nc(NC2CN(C(=O)O[C@H]3C[C@@H](N(C)C)C3)C2)c2cc(C3CC3)c(-c3c(C)c(F)cc4[nH]ncc34)c(OCc3ccc(-c4cn([C@H](C(=O)N5C[C@H](O)C[C@H]5C(=O)N[C@@H](CO)c5ccc(-c6ocnc6C)cc5)C(C)C)nn4)cc3)c2n1` (atropisomer, axis not shown; (M)) [Example 1, (1s,3R)-3-(dimethylamino)cyclobutyl 3-({(7M)-6-cyclopropyl-7-(6-fluoro-5-methyl-1H-indazol-4-yl)-8-{[4-(1-{(2S)-1-[(2S,4R)-4-hydroxy-2-({(1R)-2-hydroxy-1-[4-(4-methyl-1,3-oxazol-5-yl)phenyl]ethyl}carbamoyl)pyrrolidin-1-yl]-3-methyl-1-oxobutan-2-yl}-1H-1,2,3-triazol-4-yl)phenyl]methoxy}-2-[(2S)-2-methoxypropoxy]quinazolin-4-yl}amino)azetidine-1-carboxylate] the same measures were 28 nM, 57 nM, 19 nM and 11 nM.
Take `CO[C@@H](C)COc1cc(OC2CN(C(=O)C3CN(C)C3)C2)c2cc(C3CC3)c(-c3c(C)c(F)cc4[nH]ncc34)c(OCc3ccc(-c4cn([C@H](C(=O)N5C[C@H](O)C[C@H]5C(=O)N[C@@H](CO)c5ccc(-n6cncn6)cc5)C(C)C)nn4)cc3)c2n1` (atropisomer, axis not shown) [Example 42]: the IC50 in the assay with AsPC-1 cells stood at 10 nM; with PA-TU-8902 cells, 32 nM; in assay [1] (PaTu 8902, 24 h), 14 nM; in the assay with MIA PaCa-2 cells it was 9 nM.
Regarding `Cc1ncsc1-c1ccc([C@H](CO)NC(=O)[C@@H]2C[C@@H](O)CN2C(=O)[C@H](C(C)C)n2cc(-c3ccc(COc4c(-c5c(C)c(F)cc6[nH]ncc56)c(C5CC5)cc5c(N6CC[C@H]6C(N)=O)nc(OC6CCOCC6)nc45)cc3)nn2)cc1` [Example 35], the IC50 with AsPC-1 cells (setting [2]) amounted to 10 nM; with PA-TU-8902 cells (setting [3]), 32 nM; in assay [1] (setting [4]), 11 nM; with MIA PaCa-2 cells (setting [5]) it was 5 nM.
For `CO[C@@H](C)COc1cc(OC2CN(C(=O)N3CC(CN(C)C)C3)C2)c2cc(C3CC3)c(-c3c(C)c(F)cc4[nH]ncc34)c(OCc3ccc(-c4cn([C@H](C(=O)N5C[C@H](O)C[C@H]5C(=O)N[C@@H](CO)c5ccc(-c6ocnc6C)cc5)C(C)C)nn4)cc3)c2n1` (atropisomer, axis not shown; (M)) [Example 6, (4R)-1-[(2S)-2-(4-{4-[({(7M)-6-cyclopropyl-4-[(1-{3-[(dimethylamino)methyl]azetidine-1-carbonyl}azetidin-3-yl)oxy]-7-(6-fluoro-5-methyl-1H-indazol-4-yl)-2-[(2S)-2-methoxypropoxy]quinolin-8-yl}oxy)methyl]phenyl}-1H-1,2,3-triazol-1-yl)-3-methylbutanoyl]-4-hydroxy-N-{(1R)-2-hydroxy-1-[4-(4-methyl-1,3-oxazol-5-yl)phenyl]ethyl}-L-prolinamide] the same measures were 14 nM, 32 nM, 7 nM and 7 nM.

One may read the IC50 as the concentration at which inhibition is half-maximal.
